Data on one compound can be found in patent US11738065B2, “Polypeptides and analogues thereof for use in the treatment of diabetes and bone disorders” (UNIVERSITY OF ULSTER, priority 2015, dated 2023).

Each structure is given as a SMILES string.

Assay type in all cases: in vivo
In test [1] the test system is high fat fed mice. As to the kind of experiment: Sub chronic 21 day twice daily study in high fat fed mice (energy intake, body weight, body composition, glucose, insulin). As to conditions: 25 nmol/kg twice daily. The procedure:
All animal experiments were carried out in accordance with the UK Animals (Scientific Procedures) Act 1986. […] On day 21, a non-fasted 24 h glucose profile was conducted. […] HOMA-IR was determined using the equation HOMA-IR=fasting glucose (mmol/l)×fasting insulin (mU/l)/22.5. […] Terminal analysis included measurement of total body fat and lean mass by DEXA scanning (Piximus Densitometer, Inside Outside Sales, Madison Wis., USA) and extraction of pancreatic tissue for analysis as detailed below. […] Briefly, pancreatic tissues were fixed in 4% parafolmaldehyde at 4° C. for 48 h. Pancreata were then embedded in paraffin wax and processed using an automated tissue processor (Leica TP1020, Leica Microsystems, Nussloch, Germany). […] Abcam, ab6995) or guinea-pig anti-glucagon antibody (PCA2/4, 1:400; raised in-house). […] The slides were viewed under a FITC (488 nm) or TRITC filter (594 nm) using a fluorescent microscope (Olympus system microscope, model BX51) and photographed using a DP70 camera adapter system. Islet parameters were analysed using Cell^F image analysis software (Olympus Soft Imaging Solutions, GmbH). Blood samples were collected from the cut tip on the tail vein of conscious mice into chilled fluoride/heparin glucose micro-centrifuge tubes (Sarstedt, Numbrecht, Germany) at the time points indicated in the Drawings. Blood glucose was measured directly using a hand-held Ascencia Contour blood glucose meter (Bayer Healthcare, Newbury, Berkshire, UK).

In test [2] the test system is high fat fed mice. As to the kind of experiment: Pancreatic insulin content and islet histology after 21 days treatment. The procedure: (§1) On day 21, a non-fasted 24 h glucose profile was conducted. […] HOMA-IR was determined using the equation HOMA-IR=fasting glucose (mmol/l)×fasting insulin (mU/l)/22.5. […] Terminal analysis included measurement of total body fat and lean mass by DEXA scanning (Piximus Densitometer, Inside Outside Sales, Madison Wis., USA) and extraction of pancreatic tissue for analysis as detailed below. […] Briefly, pancreatic tissues were fixed in 4% parafolmaldehyde at 4° C. for 48 h. Pancreata were then embedded in paraffin wax and processed using an automated tissue processor (Leica TP1020, Leica Microsystems, Nussloch, Germany). Immunohistochemistry was performed as described by Vasu et al., 2014 (PLoS One. 2014 Jun. 26; 9(6):e101005). […] Abcam, ab6995) or guinea-pig anti-glucagon antibody (PCA2/4, 1:400; raised in-house). […] The slides were viewed under a FITC (488 nm) or TRITC filter (594 nm) using a fluorescent microscope (Olympus system microscope, model BX51) and photographed using a DP70 camera adapter system. Islet parameters were analysed using Cell^F image analysis software (Olympus Soft Imaging Solutions, GmbH). Blood samples were collected from the cut tip on the tail vein of conscious mice into chilled fluoride/heparin glucose micro-centrifuge tubes (Sarstedt, Numbrecht, Germany) at the time points indicated in the Drawings. Blood glucose was measured directly using a hand-held Ascencia Contour blood glucose meter (Bayer Healthcare, Newbury, Berkshire, UK).

Test [3] deals with high fat fed mice. Put plainly: Insulin sensitivity test and HOMA-IR after 21 days treatment. The protocol: as §1, with “GmbH).” for “GmbH). Blood samples were collected from the cut tip on the tail vein of conscious mice into chilled fluoride/heparin glucose micro-centrifuge tubes (Sarstedt, Numbrecht, Germany) at the time points indicated in the Drawings. Blood glucose was measured directly using a hand-held Ascencia Contour blood glucose meter (Bayer Healthcare, Newbury, Berkshire, UK).”

As to `CC[C@H](C)[C@H](NC(=O)[C@H](CO)NC(=O)[C@H](Cc1ccc(O)cc1)NC(=O)[C@H](CC(=O)O)NC(=O)[C@H](CO)NC(=O)[C@@H](NC(=O)[C@H](Cc1ccccc1)NC(=O)[C@@H](NC(=O)CNC(=O)[C@H](CCC(=O)O)NC(=O)[C@@H](C)NC(=O)[C@@H](N)Cc1ccc(O)cc1)[C@@H](C)O)[C@@H](C)CC)C(=O)N[C@@H](C)C(=O)N[C@@H](CCSC)C(=O)N[C@@H](CC(=O)O)C(=O)N[C@@H](CCCCN)C(=O)N[C@H](C(=O)N[C@@H](Cc1c[nH]cn1)C(=O)N[C@@H](CCC(N)=O)C(=O)N[C@@H](CCC(N)=O)C(=O)N[C@@H](CC(=O)O)C(=O)N[C@@H](Cc1ccccc1)C(=O)N[C@H](C(=O)N[C@@H](CC(N)=O)C(=O)N[C@@H](Cc1c[nH]c2ccccc12)C(=O)N[C@@H](CC(C)C)C(=O)N[C@@H](CC(C)C)C(=O)N[C@@H](C)C(=O)N[C@@H](CCC(N)=O)C(=O)N[C@@H](CCCCN)C(=O)NCC(=O)N[C@@H](CCCCN)C(=O)N[C@@H](CCCCN)C(=O)N[C@@H](CC(N)=O)C(=O)N[C@@H](CC(=O)O)C(=O)N[C@@H](Cc1c[nH]c2ccccc12)C(=O)N[C@@H](CCCCN)C(=O)N[C@@H](Cc1c[nH]cn1)C(=O)N[C@@H](CC(N)=O)C(=O)N[C@H](C(=O)N[C@H](C(=O)N[C@@H](CCC(N)=O)C(=O)O)[C@@H](C)O)[C@@H](C)CC)C(C)C)[C@@H](C)CC` [(DAla2)GIP, TYR-(d)ALA-GLU-GLY-THR-PHE-ILE-SER-ASP-TYR-SER-ILE-ALA-MET-ASP-LYS-ILE-HIS-GLN-GLN-ASP-PHE-VAL-ASN-TRP-LEU-LEU-ALA-GLN-LYS-GLY-LYS-LYS-ASN-ASP-TRP-LYS-HIS-ASN-ILE-THR-GLN], in the test on high fat fed mice [1], the “Non-fasting 24 h glucose profile on day 21” value was “also reduced, but not to the same extent”. For the same compound, the Circulating plasma insulin result with high fat fed mice [1] (21 days) is “tendency for reduced plasma insulin levels”. In addition, the “Energy intake or body weight” value with high fat fed mice [1] (21 days, vs high fat controls) is reported as “no significant effect”. The “Total body fat and lean mass (DXA)” value with high fat fed mice [1] (after 21 days) is “unaltered”. In the test with high fat fed mice [1] (from day 12 onwards), the “Non-fasting blood glucose vs lean control mice” value is “not significantly different from lean control mice”. Further, the “Pancreatic islet area and beta cell area” value in the test on high fat fed mice [2] (21 days twice daily 25 nmol/kg) is “no significant effect”. In the test with high fat fed mice [2] (21 days twice daily 25 nmol/kg, vs high fat controls), the “Pancreatic alpha cell area” value was “decreased (P<0.001)”. For the same compound, the “Number of islets per mm2” value in the test on high fat fed mice [2] (21 days, vs all other groups of mice) is “significantly (P<0.05 to P<0.01) augmented”. Also, the HOMA-IR insulin sensitivity result with high fat fed mice [3] (21 days treatment, vs high fat controls) was “significantly (P<0.05) improved insulin sensitivity”. Further, the “Individual blood glucose levels following exogenous insulin” value in the test on high fat fed mice [3] (insulin 15 U/kg i.p., day 21, vs high fat controls) is recorded as “reduced, albeit non-significantly”. Also, the “Overall glucose lowering effect of insulin (blood glucose AAC 0-60 min)” value in the test with high fat fed mice [3] (insulin 15 U/kg i.p., day 21, vs saline control high fat mice) is on record as “significantly (P<0.001) improved”.
